Assay results taken from ChEMBL document CHEMBL1144388, “Carbonic anhydrase inhibitors: synthesis and inhibition of cytosolic/tumor-associated carbonic anhydrase isozymes I, II, and IX with sulfonamides incorporating thioureido-sulfanilyl scaffolds” (Bioorg Med Chem Lett, 2005).

What was measured:
[1] = target: Carbonic anhydrase 1 (Homo sapiens, UniProt P00915)
Description: Inhibitory constant against human Carbonic anhydrase I

[2] = target: Carbonic anhydrases; II & IX (Homo sapiens, UniProt P00918+Q16790)
Description: Ratio against Carbonic anhydrase II to Carbonic anhydrase IX

[3] = target: Carbonic anhydrase 9 (Homo sapiens, UniProt Q16790)
Description: Inhibitory constant against human Carbonic anhydrase IX

[4] = target: Carbonic anhydrase 2 (Homo sapiens, UniProt P00918)
Description: Inhibitory constant against human Carbonic anhydrase II

Carbonic anhydrase 1, sequence (P00915 whole entry): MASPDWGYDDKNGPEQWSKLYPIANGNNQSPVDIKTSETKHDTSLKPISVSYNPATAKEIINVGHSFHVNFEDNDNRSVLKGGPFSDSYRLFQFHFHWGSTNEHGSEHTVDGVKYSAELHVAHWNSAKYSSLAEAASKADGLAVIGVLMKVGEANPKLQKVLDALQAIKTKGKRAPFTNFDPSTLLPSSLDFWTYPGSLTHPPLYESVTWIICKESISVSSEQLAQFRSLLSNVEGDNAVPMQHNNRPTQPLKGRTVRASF

SMILES	Ki [1] [µM]	Ki [2] [Ratio]	Ki [3] [µM]	Ki [4] [µM]
CN(C)CC/N=C(\S)Nc1ccc(S(=O)(=O)NCc2ccc(S(N)(=O)=O)cc2)cc1	0.21	2.22	0.0054	0.012
NS(=O)(=O)c1ccc(NS(=O)(=O)c2ccc(N/C(S)=N/N3CCOCC3)cc2)cc1	0.233	–	–	0.29
CN1CCN(CC/N=C(\S)Nc2ccc(S(=O)(=O)NCc3ccc(S(N)(=O)=O)cc3)cc2)CC1	0.246	2.06	0.005	0.0103
CN1CCN(CC/N=C(\S)Nc2ccc(S(=O)(=O)Nc3ccc(S(N)(=O)=O)cc3)cc2)CC1	0.175	1.5	0.0048	0.0072
NS(=O)(=O)c1ccc(CNS(=O)(=O)c2ccc(NC(=S)NN3CCOCC3)cc2)cc1	0.268	–	–	0.278
CN(C)CC/N=C(\S)Nc1ccc(S(=O)(=O)NCCc2ccc(S(N)(=O)=O)cc2)cc1	0.308	1.65	0.0061	0.0101
NS(=O)(=O)c1ccc(CNS(=O)(=O)c2ccc(NC(=S)NCc3ccccn3)cc2)cc1	0.355	–	–	0.29

Stronger by Ki [1], values ahead:

Ki [1] [µM]	Ki [2] [Ratio]	Ki [3] [µM]	Ki [4] [µM]	SMILES
0.105	1.2	0.0067	0.0081	CN(C)CC/N=C(\S)Nc1ccc(S(=O)(=O)Nc2ccc(S(N)(=O)=O)cc2)cc1
0.0095	32.14	0.0056	0.18	NS(=O)(=O)c1ccc(NS(=O)(=O)c2ccc(N/C(S)=N/CCN3CCOCC3)cc2)cc1
0.0086	–	–	0.64	NS(=O)(=O)c1ccc(CNS(=O)(=O)c2ccc(NC(=S)NCCc3ccccc3)cc2)cc1
0.0037	10	0.0046	0.046	NS(=O)(=O)c1ccc(CC/N=C(\S)Nc2ccc(S(=O)(=O)NCc3ccc(S(N)(=O)=O)cc3)cc2)cc1
0.0031	45.83	0.0048	0.22	NS(=O)(=O)c1ccc(CNS(=O)(=O)c2ccc(N/C(S)=N/CCN3CCOCC3)cc2)cc1
